According to US20100062465A1, “Detection of Histone Deacetylase Inhibition” (priority 2006, published 2010):
Where a name gives a salt, the structure may show the parent alone.

Experiments:
[1] = tested on: PC3 human prostate cancer cells; test: WST-1 cell proliferation assay; type: cell-based
Description: PC3 human prostate cancer cells were routinely cultured in DMEM/F12 (Gibco NY USA) supplemented with 10% FCS (Hyclone, Utah USA) and 10,000 U/mL penicillin 10,000 μg/mL streptomycin and […] amphtenicin B (Gibco, NY USA) at 37° C. in 5% CO2.
To assess the effect on cell proliferation of BLT the colorimetric WST-1 cell proliferation assay (Roche USA) was used and manufacturer instructions followed. Briefly, 20×10^3 cells/well were seeded in 96 well plates. Cells were then treated for 24 hours with BLT at 5 μM, 10 μM, 20 μM, 50 μM, 100 μM, 200 μM, 500 μM, 1 mM, 2 mM, 5 mM and 10 mM or with matched DMSO (1.20,000 to 1.10). Subsequently cells were incubated for 4 hours with the WST-1 cell proliferation reagent and absorbance read at 440 nm using a Tecan Freedom Evo liquid handler equipped with the SAFIRE monochromator-based microplate reader (Tecan U.S., NC, USA).
(§1) Note that controls were treated with DMSO in order to clearly identify effects which are due to the compound being investigated rather than its vehicle (DMSO). FSAHA dose was based on previous findings (Butler L M, Agus D B, Scher H I, et al. Suberoylanilide hydroxamic acid, an inhibitor of histone deacetylase, suppresses the growth of prostate cancer cells in vitro and in vivo. Cancer Res 2000 September 15;60(18):5165-70).

recombinant HDAC8 = biological target: T1, recombinant HDAC8 (Homo sapiens, UniProt Q9BY41); test: 19F MRS study of BLT cleavage by recombinant HDAC8; type: biochemical; settings: 0.6 mM BLT, 28U HDAC-8
T1 construct: purchased Biomol
T1 sequence (Q9BY41 1-377): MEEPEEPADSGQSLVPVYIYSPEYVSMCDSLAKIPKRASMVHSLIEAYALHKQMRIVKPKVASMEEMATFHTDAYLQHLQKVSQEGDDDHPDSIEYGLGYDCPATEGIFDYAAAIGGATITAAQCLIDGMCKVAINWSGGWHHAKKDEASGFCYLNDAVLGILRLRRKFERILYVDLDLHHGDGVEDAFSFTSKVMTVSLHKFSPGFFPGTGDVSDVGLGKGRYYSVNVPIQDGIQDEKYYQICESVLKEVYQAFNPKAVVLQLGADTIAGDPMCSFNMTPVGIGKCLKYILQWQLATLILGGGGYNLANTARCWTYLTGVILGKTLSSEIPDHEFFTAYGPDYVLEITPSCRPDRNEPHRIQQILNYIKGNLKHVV
Description: To confirm that MRS can be used to monitor cleavage of the HDAC substrate, 0.6 mM BLT (Advance Chem-Tech, KY USA) was incubated alone or with 28U recombinant HDAC-8 (Biomol PA) in a total volume of 500 μl HDAC assay buffer (Biomol PA. USA, composed of 25 mM Tris/Cl, 137 mM NaCl, 2.7 mM KCl, 1 mM MgCl2 and formulated to maintain HDAC activity). ^19F MRS was used to monitor the decrease in BLT and buildup of the cleavage product trifluoroacetate (TFA) by acquiring ^1H decoupled spectra at 10 min intervals on an Avance DPX 300 Bruker spectrometer (Bruker Biospin, Germany) using a 30 deg. flip angle, 3 s relaxation delay and 128 scans. A sealed insert containing C6F6 served as a quantification and chemical shift reference (−164.9 ppm relative to CFCl3).

[2] = In vivo toxicity of BLT after intraperitoneal injection; settings: intraperitoneal 100 mg/kg once a week on three subsequent weeks
subcutaneous PC3 tumors = test: In vivo 19F MRS of BLT in subcutaneous PC3 tumors; settings: intraperitoneal 100 mg/kg, 4.7 T
Description: As expected, the TFA peak could not be easily resolved in our preliminary in vivo studies. Intratumoral BLT levels may be higher in HDACI-treated tumors compared to controls, and therefore tumoral BLT levels may be used to assess HDAC activity in vivo. Downstream metabolic biomarkers also may be assessed in our preliminary studies. We were able to acquire a ^31P spectrum from PC3 subcutaneous tumors in 30 minutes providing a means for monitoring PC levels. This is consistent with previous studies in which an increase in PC could be monitored as an indicator of response to 17AAG treatment. ^1H MRS, with its greater sensitivity compared to ^31P, could also be used to monitor the total choline signal as a downstream metabolic marker of response to HDAC inhibition.

[3] = Solubility in growth medium; type: physicochemical; settings: dissolved in DMSO first
Description: as §1

Hsp70 = test: Western blot analysis of protein levels; type: cell-based, human; settings: PC3 cells, 10 μM FSAHA in the presence of 1 mM BLT
Description: (§2) PC3 cells were lysed using cell lysis buffer (0.1% NP-40, 50 mM HEPES (pH 7.4), 250 mM NaCl, 1 mM dithiothreitol, 1 mM EDTA, 1 mM NaF, 10 mM β-glycerophosphate, 0.1 mM sodium orthovanadate, 1 μl/ml of protease inhibitor cocktail set III (Calbiochem, USA) and 1 mM phenylmethylsulfonyl fluoride). Lysates were centrifuged at 12,000 rpm for 10 min (4° C.), the protein supernatant collected and total protein concentrations determined using Biorad DC Protein assay reagents (Biorad, CA, USA). Proteins were separated by sodium do-decyl sulfate-polyacrylamide gel electrophoresis using 10% gels and transferred electrophoretically to 0.45 μm Nitrocellulose membranes. Membranes were blocked in blocking buffer containing 5% non-fat dry milk in Tris buffered saline (pH 7.6) and 0.1% Tween-20 and incubated overnight at 4° C. with primary antibodies as follows. c-Raf, 1:1000, (Cell Signaling Technology (CST), MA, USA), Cdk4, 1:2000 (CST, MA, USA), Hsp70, 1:2000 (Stressgen, Canada) and GAPDH, 1:5000 (Stressgen, Canada). This was followed by 1 hour incubation with horseradish peroxidase-conjugated secondary anti-rabbit (CST MA, USA) and anti-mouse (CST, MA, USA) antibodies at dilutions of 1:1000 and 1:2000 respectively. Membranes were […] with enhanced chemiluminescence reagents (LumiGLO & Peroxide, CST MA. USA) for 1 minute and exposed to hyperfilm (Amersham Biosciences, USA), which was developed on a Konica SRX-101 automatic developer (Konica, Tokyo, Japan).

c-Raf-1 = test: Western blot analysis of protein levels; type: cell-based, human; settings: PC3 cells, 10 μM FSAHA in the presence of 1 mM BLT
Description: as §2

cdk4 = test: Western blot analysis of protein levels; type: cell-based, human; settings: PC3 cells, 10 μM FSAHA in the presence of 1 mM BLT
Description: as §2

Row | Cleavage by recombinant HDAC8 monitored by 19F MRS (recombinant HDAC8) | Time the BLT signal remained detectable within the tumor region (subcutaneous PC3 tumors) | MRS detectability in tumor (subcutaneous PC3 tumors; temporal resolution 5 minutes) | Solubility in growth medium [3] | Structure (SMILES) | Effect on cell proliferation compared to matched DMSO controls ([1]; 5 μM to 10 mM, 24 hours) | activity at 1000 µM ([1]; Homo sapiens, PC-3, 24-hour treatment with 1 mM BLT, read-out: Cell numbers, % of controls) | Toxicity to the animal [2] | Cell proliferation relative to control ([1]; 2 μM) | Cell proliferation relative to control ([1]; 2 μM in the presence of 1 mM BLT) | Cell proliferation relative to control ([1]; 5 μM) | Cell proliferation relative to control ([1]; 5 μM in the presence of 1 mM BLT) | Cell proliferation relative to control ([1]; 10 μM) | Cell proliferation relative to control ([1]; 10 μM in the presence of 1 mM BLT) | Induction of Hsp70 (Western blot) (Hsp70) | c-Raf-1 protein level (Western blot) (c-Raf-1) | cdk4 protein level (Western blot) (cdk4)
1 | substrate of HDAC8 | over 2 hours | MRS visible BLT signal | low solubility | CC(C)(C)OC(=O)N[C@@H](CCCCNC(=O)C(F)(F)F)C(=O)O [BLT, Boc-Lys-TFA-OH] | did not significantly affect cell proliferation | 95 ± 4% | no detectable toxicity | – | – | – | – | – | – | – | – | –
2 | – | – | – | – | O=C(CCCCCCC(=O)Nc1ccc(F)cc1)NO [FSAHA, 4-Fluorosuberanilohydroxamic acid] | – | – | – | 87±5% | 86±1% | 79±3% | 77±7% | 66±6% | 63±2% | not observed | depletion | depletion
